In patent US20230382926A1, “COMPOUNDS AND USES THEREOF” (The University of The West Indies, priority 2022, published 2023):

Legend:
[1] = tested on: Enterococcus faecalis ATCC 51299; test: Rescue concentration, modified checkerboard MIC adjuvant assay; assay type: cell-based; conditions: E. faecalis ATCC 51299; for Rescue concentration, Amp (8): Amp at susceptible breakpoint 8 μg mL^−1; for Rescue concentration, Chl (8): Chl at susceptible breakpoint 8 μg mL^−1; for Rescue concentration, Dox (4): Dox at susceptible breakpoint 4 μg mL^−1; for Rescue concentration, Ery (0.5): Ery at susceptible breakpoint 0.5 μg mL^−1; for Rescue concentration, Tri (8): Tri at susceptible breakpoint 8 μg mL^−1; for Rescue concentration, Van (4): Van at susceptible breakpoint 4 μg mL^−1
How it was run: (§1)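 Visual growth read after 24 h at 35° C. under aerobic conditions defines rescue concentration as the lowest compound concentration restoring antibiotic susceptibility at breakpoint (99.99% growth reduction). Antibiotic held fixed at CLSI susceptible breakpoint; compound serially diluted twofold; ca-MHB, 10^6 CFU/ml.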

[2] = tested on: Klebsiella pneumoniae ATCC 49472; test: as above; assay type: cell-based; conditions: K. pneumoniae ATCC 49472; for Rescue concentration, Amox (8): Amox at susceptible breakpoint 8 μg mL^−1; for Rescue concentration, Amp (8): Amp at susceptible breakpoint 8 μg mL^−1; for Rescue concentration, Col (8): Col at susceptible breakpoint 8 μg mL^−1; for Rescue concentration, Imi (1): Imi at susceptible breakpoint 1 μg mL^−1; for Rescue concentration, Mero (1): Mero at susceptible breakpoint 1 μg mL^−1; for Rescue concentration, Pol B (8): Pol B at susceptible breakpoint 8 μg mL^−1
How it was run: as §1

[3] = tested on: Carbapenem resistant Acinetobacter baumannii; test: Broth microdilution minimum inhibitory concentration; assay type: cell-based; conditions: compound alone
How it was run: (§2)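 Broth microdilution followed CLSI M07-A10, using 11 two-fold dilutions (top 1028 μg/mL, 2% DMSO final) and an inoculum of 2×10^5 to 8×10^5 CFU/mL. Wells were scored visually. MIC is the lowest concentration with no growth, tested in duplicate.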

[4] = tested on: Carbapenem resistant Klebsiella pneumoniae; test: as above; assay type: cell-based; conditions: compound alone
How it was run: as §2

[5] = tested on: Methicillin resistant Staphylococcus aureus; test: as above; assay type: cell-based; conditions: compound alone
How it was run: as §2

[6] = tested on: Multidrug resistant Pseudomonas aeruginosa; test: as above; assay type: cell-based; conditions: compound alone
How it was run: as §2

[7] = tested on: Vancomycin resistant Enterococcus faecalis; test: as above; assay type: cell-based; conditions: compound alone
How it was run: as §2

MRSA = test: Rescue concentration of substituted phenyl azaindole derivatives; assay type: cell-based, Staphylococcus aureus; conditions: Amoxicillin fixed at 2 μg/mL
How it was run: (§3)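 Modified checkerboard MIC: fixed CLSI susceptible-breakpoint antibiotic concentration plus twofold dilution series of SP-azaBIM, 10^6 CFU/ml in ca-MHB, 35° C, 24 h aerobic. Only antibiotics to which the strain was resistant were tested. Rescue concentration = lowest compound concentration giving 99.99% growth reduction (visual) at breakpoint.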

K. pneumoniae = test: as above; assay type: cell-based; conditions: for Rescue concentration, K. pneumoniae Ciprofloxacin (1 μg/mL): Ciprofloxacin fixed at 1 μg/mL; for Rescue concentration, K. pneumoniae Imipenem (1 μg/mL): Imipenem fixed at 1 μg/mL
How it was run: as §3

P. aeruginosa = test: as above; assay type: cell-based; conditions: Imipenem fixed at 1 μg/mL
How it was run: as §3

| SMILES | Rescue concentration, Amp (8) [1] [µg/mL] | Rescue concentration, Chl (8) [1] [µg/mL] | Rescue concentration, Dox (4) [1] [µg/mL] | Rescue concentration, Ery (0.5) [1] [µg/mL] | Rescue concentration, Tri (8) [1] [µg/mL] | Rescue concentration, Van (4) [1] [µg/mL] | Rescue concentration, Amox (8) [2] [µg/mL] | Rescue concentration, Amp (8) [2] [µg/mL] | Rescue concentration, Col (8) [2] [µg/mL] | Rescue concentration, Imi (1) [2] [µg/mL] | Rescue concentration, Mero (1) [2] [µg/mL] | Rescue concentration, Pol B (8) [2] [µg/mL] | MIC [3] [µg/mL] | MIC [4] [µg/mL] | MIC [5] [µg/mL] | MIC [6] [µg/mL] | MIC [7] [µg/mL] | Rescue concentration, MRSA Amoxicillin (2 μg/mL) (MRSA) [µg/mL] | Rescue concentration, K. pneumoniae Ciprofloxacin (1 μg/mL) (K. pneumoniae) [µg/mL] | Rescue concentration, K. pneumoniae Imipenem (1 μg/mL) (K. pneumoniae) [µg/mL] | also measured |
| --- | --- | --- | --- | --- | --- | --- | --- | --- | --- | --- | --- | --- | --- | --- | --- | --- | --- | --- | --- | --- | --- |
| Oc1ccc(C(c2c[nH]c3ncccc23)c2c[nH]c3ncccc23)cc1 [SP-7azaBIM 135, 4-(bis(1H-pyrrolo[2,3-b]pyridin-3-yl)methyl)phenol] | >128 | >128 | >128 | >128 | >128 | >128 | >128 | >128 | >128 | >128 | >128 | >128 |  |  |  |  |  |  |  |  |  |
| Brc1ccc(C(c2c[nH]c3cnccc23)c2c[nH]c3cnccc23)cc1 [SP-6azaBIM 125, 3,3′-((4-bromophenyl)methylene)bis(1H-pyrrolo[2,3-c]pyridine)] | >128 | >128 | >128 | >128 | >128 | >128 | 4 | 16 | 4 | 2 | 4 | 4 | < 1020 | < 1020 | < 1020 | < 1020 | < 1020 | 0.5 | 4 | 4 | Rescue concentration, P. aeruginosa Imipenem (1 μg/mL) (P. aeruginosa): 32 µg/mL |
| Oc1ccc(C(c2c[nH]c3cnccc23)c2c[nH]c3cnccc23)cc1 [SP-6azaBIM 136, 4-(bis(1H-pyrrolo[2,3-c]pyridin-3-yl)methyl)phenol] | >128 | >128 | >128 | >128 | >128 | >128 | 32 | 64 | 32 | 16 | 32 | 16 | < 1020 | < 1020 | < 1020 | < 1020 | < 1020 | 8 | <256 | <256 | Rescue concentration, P. aeruginosa Imipenem (1 μg/mL) (P. aeruginosa): 256 µg/mL |
| Brc1ccc(C(c2c[nH]c3ncccc23)c2c[nH]c3ncccc23)cc1 [SP-7azaBIM 126, 3,3′-((4-bromophenyl)methylene)bis(1H-pyrrolo[2,3-b]pyridine)] | 32 | >128 | >128 | >128 | >128 | 64 | >128 | >128 | >128 | >128 | >128 | >128 |  |  |  |  |  |  |  |  |  |
